From the supplement of paper PMC11451515

Tested on: NOMO1
Assay: cell viability relative to DMSO control; higher = less cytotoxic
Details: 48 h
Procedure, shortened: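 Viability, reported as a per-plate percentage of DMSO wells with cell-free wells as background, came from CellTiter-Glo One luminescence. Reading took place after 48 h at 37°C. Before that, NOMO1 or SEM (500 cells/well) or P12-Ichikawa (1000 cells/well) leukemia cells, adapted for at least four passages in each medium, were seeded in 1536-well plates (5 μl) and pin-dosed with library compounds in DMSO, 47 μM to 0.79 nM over 11 threefold points.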

[1] = HPLM + 10% dialyzed FBS, 0.000781 µM
[2] = HPLM + 10% dialyzed FBS, 0.00234 µM
[3] = HPLM + 10% dialyzed FBS, 0.00702 µM
[4] = HPLM + 10% dialyzed FBS, 0.0211 µM
[5] = HPLM + 10% dialyzed FBS, 0.0632 µM
[6] = HPLM + 10% dialyzed FBS, 0.19 µM
[7] = HPLM + 10% dialyzed FBS, 0.569 µM
[8] = HPLM + 10% dialyzed FBS, 1.71 µM
[9] = HPLM + 10% dialyzed FBS, 5.12 µM
[10] = HPLM + 10% dialyzed FBS, 15.4 µM
[11] = HPLM + 10% dialyzed FBS, 46.1 µM
[12] = RPMI 5 mM glucose + 10% FBS, 0.000781 µM
[13] = RPMI 5 mM glucose + 10% FBS, 0.00234 µM
[14] = RPMI 5 mM glucose + 10% FBS, 0.00702 µM
[15] = RPMI 5 mM glucose + 10% FBS, 0.0211 µM
[16] = RPMI 5 mM glucose + 10% FBS, 0.0632 µM
[17] = RPMI 5 mM glucose + 10% FBS, 0.19 µM
[18] = RPMI 5 mM glucose + 10% FBS, 0.569 µM
[19] = RPMI 5 mM glucose + 10% FBS, 1.71 µM
[20] = RPMI 5 mM glucose + 10% FBS, 5.12 µM
[21] = RPMI 5 mM glucose + 10% FBS, 15.4 µM
[22] = RPMI 5 mM glucose + 10% FBS, 46.1 µM
[23] = RPMI 5 mM glucose + 10% dialyzed FBS, 0.000781 µM
[24] = RPMI 5 mM glucose + 10% dialyzed FBS, 0.00234 µM
[25] = RPMI 5 mM glucose + 10% dialyzed FBS, 0.00702 µM
[26] = RPMI 5 mM glucose + 10% dialyzed FBS, 0.0211 µM
[27] = RPMI 5 mM glucose + 10% dialyzed FBS, 0.0632 µM
[28] = RPMI 5 mM glucose + 10% dialyzed FBS, 0.19 µM
[29] = RPMI 5 mM glucose + 10% dialyzed FBS, 0.569 µM
[30] = RPMI 5 mM glucose + 10% dialyzed FBS, 1.71 µM
[31] = RPMI 5 mM glucose + 10% dialyzed FBS, 5.12 µM
[32] = RPMI 5 mM glucose + 10% dialyzed FBS, 15.4 µM
[33] = RPMI 5 mM glucose + 10% dialyzed FBS, 46.1 µM

Structure (SMILES)	cell viability [1] [%]	cell viability [2] [%]	cell viability [3] [%]	cell viability [4] [%]	cell viability [5] [%]	cell viability [6] [%]	cell viability [7] [%]	cell viability [8] [%]	cell viability [9] [%]	cell viability [10] [%]	cell viability [11] [%]	cell viability [12] [%]	cell viability [13] [%]	cell viability [14] [%]	cell viability [15] [%]	cell viability [16] [%]	cell viability [17] [%]	cell viability [18] [%]	cell viability [19] [%]	cell viability [20] [%]	cell viability [21] [%]	cell viability [22] [%]	cell viability [23] [%]	cell viability [24] [%]	cell viability [25] [%]	cell viability [26] [%]	cell viability [27] [%]	cell viability [28] [%]	cell viability [29] [%]	cell viability [30] [%]	cell viability [31] [%]	cell viability [32] [%]	cell viability [33] [%]
c1cc(OCCN2CCCCC2)cc(-c2n[nH]c3ccc(-c4nc[nH]n4)cc23)c1	116	120	129	127	137	103	127	127	114	122	100	115	115	113	105	103	122	112	111	103	104	109	99.5	97.1	101	108	101	109	114	105	111	101	109
N#Cc1c(C2CCNCC2)cc(-c2c(O)cccc2OCC2CC2)nc1N	110	116	126	115	103	113	121	104	105	90.1	99.1	102	115	104	118	111	104	113	102	93.6	88.4	80.9	115	101	117	116	111	105	117	104	94.2	88.3	74.4
COc1ccc(-c2nc3cc(C4=NNC(=O)CC4C)ccc3[nH]2)cc1 (centres undefined)	104	117	107	103	110	119	112	123	119	119	126	91.5	102	100	108	117	118	109	114	102	117	118	116	110	111	105	110	118	104	111	116	110	120
Nc1ccc([S+](=O)([O-])Nc2ccccn2)cc1	122	106	122	117	106	115	140	133	116	124	87.6	110	106	111	113	121	125	112	118	126	108	79.8	120	121	114	109	112	121	122	130	109	115	58.1
Cn1c(=O)c2c(ncn2CC(O)CO)n(C)c1=O (centres undefined)	106	109	114	119	121	136	103	120	130	103	111	119	98	100	109	104	108	103	103	103	95.3	58.2	116	116	115	128	118	115	128	120	111	99.4	62.7
O=C1[O][Pt]2([NH]C3CCCCC3[NH]2)[O]C1=O (centres undefined)	116	118	119	107	141	118	131	120	90.2	14.7	7.1	108	103	120	119	110	135	115	107	90.4	17.6	5.82	107	108	100	110	109	122	108	112	98.4	38.3	9.17
Cn1cc(-c2ccc3ncc(Cc4ccc5ncccc5c4)n3n2)cn1	102	96.5	99.8	110	100	102	111	120	110	105	91.7	99.2	108	102	96.4	115	110	118	111	102	97.6	102	84.9	110	97.4	112	105	105	114	110	99	94.4	99.7
C[Se]CCC(N)C(=O)O (centres undefined)	90.1	90.2	85.7	95.7	99.3	93	93.1	59.1	83.5	69	73.7	79.9	83.5	97.2	84.4	88.5	83.3	89.3	86.7	79.4	84	79	77.2	87.3	85.4	81.9	91.1	89.1	73.1	77	95.7	74.2	76.2
